Reference: PubChem BioAssay AID216 (DTP/NCI, 2004)
“And” between values parts separate entries of the source, which are not always exact repeats. Identical values can stand only once. Inconclusive results and toxic doses are left out.

Test system: BDF1 mice, P288 leukemia ip, survival T/C
Assay: NCI In Vivo Anticancer Drug Screen. Data for tumor model P288 Lymphocytic Leukemia (intraperitoneal) in B6D2F1 (BDF1) mice
Conditions: endpoint: survival time, mean or median, higher = longer survival
Description: The antitumor activity of compounds was measured in mice bearing transplantable tumors. Survival or tumor size were measured and the results are expressed as the measurement made in the treated group (T) divided by the measurement made in the vehicle treated control group (C). The tumor model used in this assay is P288 Lymphocytic Leukemia (intraperitoneal) in B6D2F1 (BDF1) mice

[1] = dose: 5.0 mg/kg/injection, schedule: Q01DX010 (ip), vehicle: saline
[2] = dose: 10.0 mg/kg/injection, schedule: Q01DX010 (ip), vehicle: saline
[3] = dose: 20.0 mg/kg/injection, schedule: Q01DX010 (ip), vehicle: saline
[4] = dose: 25.0 mg/kg/injection, schedule: Q01DX Z (ip), vehicle: carboxymethylcellulose (CMC)
[5] = dose: 40.0 mg/kg/injection, schedule: Q01DX010 (ip), vehicle: saline
[6] = dose: 80.0 mg/kg/injection, schedule: Q01DX010 (ip), vehicle: saline
[7] = dose: 100.0 mg/kg/injection, schedule: Q01DX Z (ip), vehicle: carboxymethylcellulose (CMC)
[8] = dose: 200.0 mg/kg/injection, schedule: Q01DX Z (ip), vehicle: carboxymethylcellulose (CMC)
[9] = dose: 16.0 mg/kg/injection, schedule: Q01DX010 (ip), vehicle: saline
[10] = dose: 50.0 mg/kg/injection, schedule: Q01DX Z (ip), vehicle: carboxymethylcellulose (CMC)
[11] = dose: 12.5 mg/kg/injection, schedule: Q01DX Z (ip), vehicle: carboxymethylcellulose (CMC)
[12] = dose: 2.0 mg/kg/injection, schedule: Q01DX010 (ip), vehicle: saline
[13] = dose: 4.0 mg/kg/injection, schedule: Q01DX010 (ip), vehicle: saline
[14] = dose: 8.0 mg/kg/injection, schedule: Q01DX010 (ip), vehicle: saline
[15] = dose: 62.5 mg/kg/injection, schedule: Q01DX010 (ip), vehicle: saline
[16] = dose: 125.0 mg/kg/injection, schedule: Q01DX010 (ip), vehicle: saline
[17] = dose: 250.0 mg/kg/injection, schedule: Q01DX010 (ip), vehicle: saline
[18] = dose: 500.0 mg/kg/injection, schedule: Q01DX010 (ip), vehicle: saline
[19] = dose: 62.5 mg/kg/injection, schedule: Q01DX Z (ip), vehicle: carboxymethylcellulose (CMC)
[20] = dose: 250.0 mg/kg/injection, schedule: Q01DX Z (ip), vehicle: carboxymethylcellulose (CMC)
[21] = dose: 500.0 mg/kg/injection, schedule: Q01DX Z (ip), vehicle: carboxymethylcellulose (CMC)

With `O=c1[nH]c(=O)n(C2CC(O)C(CO)O2)cc1F` (centres undefined) the T/C [1] was 106 % of control, the T/C [2] was 109 % of control and 100 % of control and the T/C [3] was 112 % of control and 100 % of control. The T/C [4] was 111 % of control, the T/C [5] was 113 % of control and the T/C [6] was 118 % of control. For the same molecule, the T/C [7] was 156 % of control and 163 % of control, the T/C [8] was 111 % of control and 124 % of control and the T/C (dose: 400.0 mg/kg/injection, schedule: Q01DX Z (ip), vehicle: carboxymethylcellulose (CMC)) was 108 % of control. The T/C (dose: 800.0 mg/kg/injection, schedule: Q01DX Z (ip), vehicle: carboxymethylcellulose (CMC)) was 86 % of control.

With `CCCCn1cnc2c(=S)nc[nH]c21` the T/C [9] was 88 % of control and 94 % of control, the T/C [4] was 108 % of control and the T/C (dose: 32.0 mg/kg/injection, schedule: Q01DX010 (ip), vehicle: saline) was 88 % of control and 100 % of control. For the same molecule, the T/C [10] was 102 % of control, the T/C (dose: 64.0 mg/kg/injection, schedule: Q01DX010 (ip), vehicle: saline) was 88 % of control and 100 % of control and the T/C [7] was 106 % of control and 113 % of control. For the same molecule, the T/C (dose: 128.0 mg/kg/injection, schedule: Q01DX010 (ip), vehicle: saline) was 100 % of control and the T/C [8] was 100 % of control.

`Oc1cc(CN(CCCl)CCCl)c(O)cc1CN(CCCl)CCCl` was tested, and the T/C (dose: 0.63 mg/kg/injection, schedule: Q01DX010 (ip), vehicle: saline) was 100 % of control, the T/C (dose: 1.25 mg/kg/injection, schedule: Q01DX010 (ip), vehicle: saline) was 111 % of control and 100 % of control and the T/C (dose: 1.88 mg/kg/injection, schedule: Q01DX Z (sc), vehicle: steriod suspending solution) was 87 % of control. For the same molecule, the T/C (dose: 2.5 mg/kg/injection, schedule: Q01DX010 (ip), vehicle: saline) was 105 % of control, the T/C (dose: 3.75 mg/kg/injection, schedule: Q01DX Z (sc), vehicle: steriod suspending solution) was 104 % of control and the T/C [1] was 105 % of control and 116 % of control. The T/C [2] was 95 % of control.

`Cn1cnc([N+](=O)[O-])c1Sc1ncnc2nc[nH]c12` was tested, and the T/C [11] was 104 % of control, the T/C [4] was 112 % of control and the T/C [10] was 114 % of control. For the same molecule, the T/C [7] was 98 % of control.

In the case of `Nc1nc(=S)c2ncn(C3OC(CO)C(O)C3O)c2[nH]1` (centres undefined), the T/C (dose: 1.0 mg/kg/injection, schedule: Q01DX010 (ip), vehicle: saline) is reported as 105 % of control, the T/C [12] is reported as 115 % of control and the T/C [13] is reported as 118 % of control and 120 % of control. For the same molecule, the T/C [14] was 112 % of control and 95 % of control, the T/C [9] was 106 % of control and the T/C (dose: 5.0 micrograms/kg/injection, schedule: Q01DX Z (ip), vehicle: carboxymethylcellulose (CMC)) was 105 % of control. For the same molecule, the T/C (dose: 10.0 micrograms/kg/injection, schedule: Q01DX Z (ip), vehicle: carboxymethylcellulose (CMC)) was 96 % of control and the T/C (dose: 20.0 micrograms/kg/injection, schedule: Q01DX Z (ip), vehicle: carboxymethylcellulose (CMC)) was 94 % of control.

In the case of `c1ccc(CCSc2ncnc3nc[nH]c23)cc1`, the T/C [15] is reported as 100 % of control, the T/C [16] is reported as 100 % of control and the T/C [17] is reported as 122 % of control and 100 % of control. The T/C [18] was 105 % of control and 122 % of control.

With `CCCCCCCCCCCCNCCCCCCCCCCCC` the T/C (dose: 7.5 mg/kg/injection, schedule: Q01DX Z (ip), vehicle: carboxymethylcellulose (CMC)) was 108 % of control, the T/C (dose: 15.0 mg/kg/injection, schedule: Q01DX Z (ip), vehicle: carboxymethylcellulose (CMC)) was 106 % of control and the T/C (dose: 30.0 mg/kg/injection, schedule: Q01DX Z (ip), vehicle: carboxymethylcellulose (CMC)) was 110 % of control. For the same molecule, the T/C (dose: 60.0 mg/kg/injection, schedule: Q01DX Z (ip), vehicle: carboxymethylcellulose (CMC)) was 116 % of control.

For `C[C@@H]1C[C@H]2CC[C@H](O2)[C@H](C)C(=O)O[C@@H](C)C[C@@H]2CC[C@@H](O2)[C@@H](C)C(=O)O[C@H](C)C[C@H]2CC[C@H](O2)[C@H](C)C(=O)O[C@@H](C)C[C@@H]2CC[C@@H](O2)[C@@H](C)C(=O)O1`, the T/C [4] was 98 % of control, the T/C [10] was 96 % of control and the T/C [7] was 120 % of control. The T/C [8] was 111 % of control.

In the case of `COc1cc(-c2ccc(Nc3ccccc3C(=O)O)c(OC)c2)ccc1N`, the T/C [2] is reported as 94 % of control, the T/C [3] is reported as 114 % of control and 100 % of control and the T/C [5] is reported as 200 % of control. The T/C [6] was 200 % of control and 228 % of control.

For `C=CC(CN1CC1)OC(C)=O` (centres undefined), the T/C (dose: 0.47 mg/kg/injection, schedule: Q01DX Z (ip), vehicle: carboxymethylcellulose (CMC)) was 109 % of control, the T/C (dose: 0.95 mg/kg/injection, schedule: Q01DX Z (ip), vehicle: carboxymethylcellulose (CMC)) was 101 % of control and the T/C (dose: 1.9 mg/kg/injection, schedule: Q01DX Z (ip), vehicle: carboxymethylcellulose (CMC)) was 115 % of control and 90 % of control. The T/C [12] was 94 % of control, the T/C (dose: 3.8 mg/kg/injection, schedule: Q01DX Z (ip), vehicle: carboxymethylcellulose (CMC)) was 108 % of control and the T/C [13] was 94 % of control. For the same molecule, the T/C [14] was 115 % of control and the T/C [9] was 115 % of control.

With `CC[C@H](c1ccc(O)cc1)[C@@H](CC)c1ccc(O)cc1` the T/C (dose: 8.0 mg/kg/injection, schedule: Q01DX Z (sc), vehicle: steriod suspending solution) was 90 % of control, the T/C (dose: 16.0 mg/kg/injection, schedule: Q01DX Z (sc), vehicle: steriod suspending solution) was 93 % of control and the T/C (dose: 31.0 mg/kg/injection, schedule: Q01DX Z (sc), vehicle: steriod suspending solution) was 97 % of control. For the same molecule, the T/C (dose: 62.5 mg/kg/injection, schedule: Q01DX Z (sc), vehicle: steriod suspending solution) was 88 % of control and 98 % of control and the T/C (dose: 125.0 mg/kg/injection, schedule: Q01DX Z (sc), vehicle: steriod suspending solution) was 90 % of control.

`CCOC(=O)NP(=O)(N1CC1(C)C)N1CC1(C)C` (centres undefined) was tested, and the T/C (dose: 16.0 mg/kg/injection, schedule: Q01DX Z (ip), vehicle: carboxymethylcellulose (CMC)) was 95 % of control, the T/C (dose: 31.0 mg/kg/injection, schedule: Q01DX Z (ip), vehicle: carboxymethylcellulose (CMC)) was 98 % of control and the T/C [19] was 112 % of control. The T/C [20] was 180 % of control and the T/C [21] was 117 % of control.

For `Nc1nc2n[nH]nc2c(=O)[nH]1`, the T/C (dose: 12.5 mg/kg/injection, schedule: Q01DX Z (ip), vehicle: other) was 111 % of control, the T/C (dose: 25.0 mg/kg/injection, schedule: Q01DX010 (ip), vehicle: alkali diluted with saline) was 100 % of control and the T/C (dose: 100.0 mg/kg/injection, schedule: Q01DX Z (ip), vehicle: other) was 152 % of control and 183 % of control. For the same molecule, the T/C (dose: 200.0 mg/kg/injection, schedule: Q01DX Z (ip), vehicle: other) was 195 % of control.

For `O=CN(O)CC(=O)O`, the T/C (dose: 31.25 mg/kg/injection, schedule: Q01DX Z (ip), vehicle: carboxymethylcellulose (CMC)) was 110 % of control, the T/C [15] was 100 % of control and the T/C [19] was 104 % of control. The T/C [16] was 100 % of control, the T/C (dose: 125.0 mg/kg/injection, schedule: Q01DX Z (ip), vehicle: carboxymethylcellulose (CMC)) was 100 % of control and the T/C [17] was 100 % of control. For the same molecule, the T/C [20] was 110 % of control, the T/C [18] was 88 % of control and the T/C [21] was 106 % of control and 115 % of control. The T/C (dose: 1000.0 mg/kg/injection, schedule: Q01DX Z (ip), vehicle: carboxymethylcellulose (CMC)) was 100 % of control.

For `COc1cc(-c2ccc(Nc3ccccc3C(=O)O)c(OC)c2)ccc1Nc1ccccc1C(=O)O`, the T/C (dose: 25.0 mg/kg/injection, schedule: Q01DX010 (ip), vehicle: saline) was 116 % of control, the T/C (dose: 100.0 mg/kg/injection, schedule: Q01DX010 (ip), vehicle: saline) was 155 % of control and the T/C (dose: 200.0 mg/kg/injection, schedule: Q01DX010 (ip), vehicle: saline) was 161 % of control.

With `CCCSc1ncnc2nc[nH]c12` the T/C (dose: 6.25 mg/kg/injection, schedule: Q01DX Z (ip), vehicle: carboxymethylcellulose (CMC)) was 113 % of control, the T/C [11] was 105 % of control and the T/C (dose: 31.3 mg/kg/injection, schedule: Q01DX010 (ip), vehicle: saline) was 88 % of control. The T/C [10] was 115 % of control, the T/C [15] was 94 % of control and the T/C [16] was 88 % of control.
